Results: patent US4269834A, “Copper complexes of isoquinazolines” (priority 1977, dated 1981)
In brackets after ≈: the same amount, converted by molar mass. Read-outs that look alike come from different tables or passages of the source.

Test system: Mycoplasma gallisepticum
Test: Activity against Mycoplasma gallisepticum (minimum inhibiting concentration)
Format: cell-based
Conditions: for MIC with Cu: media containing 50 μg/ml Cu^2+; for MIC: without added Cu; for MIC M. gall. with Cu: with Cu (50 μg/ml Cu^2+)
Text: The following tables show some activities--expressed as minimum inhibiting concentration (MIC)--of the prepared compounds against various micro-organisms. The compounds are identified by reference to the Example in which they are described. When more than one compound is mentioned in an Example, they are distinguished by a number between parentheses, corresponding to their order of occurrence, for instance: VI (2) refers to the second compound prepared according to Example VI. The term "with Cu" refers to tests conducted in media containing 50 μg/ml Cu^2+.
The activities of the following compounds, not mentioned in the Examples, were also measured.

[1] = Mycoplasmoides gallisepticum, Table IVb, read-out: MIC M. gall.
[2] = Mycoplasmoides gallisepticum, Table I, read-out: MIC

Structure (SMILES)	MIC with Cu (Table I) [µg/mL]	MIC (Table I) [µg/mL]	also measured
O=[N+]([O-])[O-].[Cu+].c1cnc2c(c1)ccc1cccnc12.c1cnc2c(c1)ccc1cccnc12 [IId, Bis(1,10-phenanthroline)cuprous nitrate]	25	12.5	–
CCc1ccc2cc(-c3ccccn3)nc(N)c2c1 [VIIIk]	0.2	–	–
Nc1nc(-c2ccccn2)cc2ccc(I)cc12 [VIIIl]	0.2	–	–
Cn1ccnc1-c1cc2ccccc2c(N)n1.O=[N+]([O-])[O-].O=[N+]([O-])[O-].[Cu+2] [XVb (2), mono[1-amino-3-(1-methyl-1H-imidazole-2-yl)isoquinoline]cupric nitrate]	1.5	12.5	–
C=Cn1ccnc1-c1cc2ccccc2c(N)n1.O=[N+]([O-])[O-].O=[N+]([O-])[O-].[Cu+2] [XVIId (2), Mono[1-amino-3-(1-ethenyl-1H-imidazole-2-yl)isoquinoline]cupric nitrate]	0.2	12.5	–
Nc1ccc2ccc3cccnc3c2n1 [F]	–	–	MIC [1]: 25 µg/mL (≈ 128 µM); MIC M. gall. with Cu (Table IVb): 0.8 µg/mL
C=Cn1ccnc1-c1nc(N)c2ccccc2n1.C=Cn1ccnc1-c1nc(N)c2ccccc2n1.O=[N+]([O-])[O-].O=[N+]([O-])[O-].[Cu+2] [XVIIIb (3), Bis[4-amino-2-(1-ethenyl-1H-imidazole-2-yl)quinazoline]cupric nitrate]	0.2	12.5	–
Cc1ccc2cc(-c3ccccn3)nc(N)c2c1 [VIIId]	0.2	–	MIC [2]: 1.5 µg/mL (≈ 6.38 µM)
C=Cn1ccnc1-c1nc(N)c2ccccc2n1.C=Cn1ccnc1-c1nc(N)c2ccccc2n1.O=[N+]([O-])[O-].[Cu+] [XVIIIb (1), Bis[4-amino-2-(1-ethenyl-1H-imidazole-2-yl)quinazoline]cuprous nitrate]	0.2	12.5	–
COc1cc2cc(-c3ccccn3)nc(N)c2cc1OC [VIIIa]	12.5	–	MIC [2]: 100 µg/mL (≈ 355 µM)
Nc1nc(-c2ncc[nH]2)cc2ccccc12.Nc1nc(-c2ncc[nH]2)cc2ccccc12.O=[N+]([O-])[O-].O=[N+]([O-])[O-].[Cu+2] [XIXb (3), Bis[1-amino-3-(1H-imidazole-2-yl)isoquinoline]cupric nitrate]	3	50	–
Cn1ccnc1-c1cc2ccccc2c(N)n1.Cn1ccnc1-c1cc2ccccc2c(N)n1.O=[N+]([O-])[O-].[Cu+] [XVb (1), Bis[1-amino-3-(1-methyl-1H-imidazole-2-yl)isoquinoline]cuprous nitrate]	0.8	12.5	–
Cn1ccnc1-c1nc(N)c2ccccc2n1 [XVIa, 4-amino-2-(1-methyl-1H-imidazole-2-yl)quinazoline]	0.2	–	MIC [2]: 25 µg/mL (≈ 111 µM)
Cl.Nc1nc(-c2ccccn2)cc2cc(Cl)ccc12 [Example VII, 1-amino-6-chloro-3-(2-pyridyl)isoquinoline hydrochloride]	0.4	–	–
Nc1nc(-c2ccccn2)cc2ccccc12.O=[N+]([O-])[O-].O=[N+]([O-])[O-].[Cu+2] [IVa, Mono[1-amino-3-(2-pyridyl)isoquinoline]cupric nitrate]	–	1.5	–
Nc1nc(-c2ccccn2)cc2ccccc12.Nc1nc(-c2ccccn2)cc2ccccc12.O=[N+]([O-])[O-].O=[N+]([O-])[O-].[Cu+2] [Example V, bis[1-amino-3-(2-pyridyl)isoquinoline]cupric nitrate]	–	3	–
C=Cn1ccnc1-c1nc(N)c2ccccc2n1.O=[N+]([O-])[O-].O=[N+]([O-])[O-].[Cu+2] [XVIIIb (2), Mono[4-amino-2-(1-ethenyl-1H-imidazole-2-yl)quinazoline]cupric nitrate]	0.2	6	–
Nc1ccc2ccc3ccc(N)nc3c2n1 [E]	–	–	MIC [1]: 50 µg/mL (≈ 238 µM); MIC M. gall. with Cu (Table IVb): 0.8 µg/mL
Nc1nc(-c2ncc[nH]2)cc2ccccc12.O=[N+]([O-])[O-].O=[N+]([O-])[O-].[Cu+2] [XIXb (2), Mono[1-amino-3-(1H-imidazole-2-yl)isoquinoline]cupric nitrate]	3	50	–
Cc1cccc(-c2cc3ccccc3c(N)n2)n1.O=[N+]([O-])[O-].O=[N+]([O-])[O-].[Cu+2] [IVc, Mono[1-amino-3-(6-methyl-2-pyridyl)isoquinoline]cupric nitrate]	–	0.8	–
C=Cn1ccnc1-c1cc2ccccc2c(N)n1.C=Cn1ccnc1-c1cc2ccccc2c(N)n1.O=[N+]([O-])[O-].[Cu+] [XVIId (1), Bis[1-amino-3-(1-ethenyl-1H-imidazole-2-yl)isoquinoline]cuprous nitrate]	0.2	25	–
Nc1nc(-c2ccccn2)cc2ccc(Cl)cc12 [VIIIi]	0.2	–	–
C=Cn1ccnc1-c1cc2ccccc2c(N)n1 [Example XVIIc, 1-amino-3-(1-ethenyl-1H-imidazole-2-yl) isoquinoline]	0.2	–	MIC [2]: > 100 µg/mL

Structure (SMILES)	MIC with Cu (Table I) [µg/mL]	MIC (Table I) [µg/mL]	also measured
Nc1nc(-c2ccccn2)cc2c(Cl)cccc12.O=[N+]([O-])[O-].O=[N+]([O-])[O-].[Cu+2] [IVb, Mono[1-amino-5-chloro-3-(2-pyridyl)isoquinoline]cupric nitrate]	–	0.8	–
Nc1nc(-c2ccccn2)cc2c(Cl)cccc12.Nc1nc(-c2ccccn2)cc2c(Cl)cccc12.O=[N+]([O-])[O-].[Cu+] [IIa, Bis[1-amino-5-chloro-3-(2-pyridyl)isoquinoline]cuprous nitrate]	–	1.5	–
Cl.Nc1nc(-c2ccccn2)cc2cc(Br)ccc12 [Example X, 1-Amino-6-bromo-3-(2-pyridyl)isoquinoline hydrochloride]	0.4	–	–
Cc1cccc(-c2cc3ccccc3c(N)n2)n1.Cc1cccc(-c2cc3ccccc3c(N)n2)n1.O=[N+]([O-])[O-].O=[N+]([O-])[O-].[Cu+2] [VI (2), bis[1-amino-3-(6-methyl-2-pyridyl)isoquinoline]cupric nitrate]	–	0.8	–
Cc1cccc2c(N)nc(-c3ccccn3)cc12 [VIIIb]	0.2	–	MIC [2]: 1.5 µg/mL (≈ 6.38 µM)
Clc1ccc2nc(-c3ccccn3)ncc2c1 [C]	–	–	MIC M. gall. with Cu (Table IVb): 0.8 µg/mL
COc1ccc2ccc3cccnc3c2n1 [G]	–	–	MIC [1]: > 100 µg/mL; MIC M. gall. with Cu (Table IVb): 3 µg/mL
c1ccc(-c2nc(-c3ccccn3)cc3ccccc23)cc1 [XIVb, 1-phenyl-3-(2-pyridyl)isoquinoline]	0.2	–	–
Clc1ccc2ccc3ccc(Cl)nc3c2n1.Clc1ccc2ccc3ccc(Cl)nc3c2n1.O=[N+]([O-])[O-].[Cu+] [IIe, Bis(2,9-dichloro-1,10-phenanthroline)cuprous nitrate]	–	25	–
Cn1ccnc1-c1nc(N)c2ccccc2n1.Cn1ccnc1-c1nc(N)c2ccccc2n1.O=[N+]([O-])[O-].O=[N+]([O-])[O-].[Cu+2] [XVIb (3), Bis[4-amino-2-(1-methyl-1H-imidazole-2-yl)quinazoline]cupric nitrate]	0.2	12.5	–
Nc1nc(-c2ccccn2)cc2cccc(Cl)c12 [VIIIj]	0.2	–	MIC [2]: 100 µg/mL (≈ 391 µM)
Cl.Cl.Nc1nc(-c2ncc[nH]2)nc2ccccc12 [XXa, 4-amino-2(1H-imidazole-2-yl)quinazoline dihydrochloride]	3	–	MIC [2]: > 100 µg/mL
Cn1ccnc1-c1cc2ccccc2c(N)n1.Cn1ccnc1-c1cc2ccccc2c(N)n1.O=[N+]([O-])[O-].O=[N+]([O-])[O-].[Cu+2] [XVb (3), Bis[1-amino-3-(1-methyl-1H-imidazole-2-yl)isoquinoline]cupric nitrate]	1.5	12.5	–
Nc1nc(-c2ncc[nH]2)nc2ccccc12.O=[N+]([O-])[O-].O=[N+]([O-])[O-].[Cu+2] [XXb (2), Mono[4-amino-2-(1H-imidazole-2-yl)quinazoline]cupric nitrate]	1.5	25	–
C=Cn1ccnc1-c1cc2ccccc2c(N)n1.C=Cn1ccnc1-c1cc2ccccc2c(N)n1.O=[N+]([O-])[O-].O=[N+]([O-])[O-].[Cu+2] [XVIId (3), Bis[1-amino-3-(1-ethenyl-1H-imidazole-2-yl)isoquinoline]cupric nitrate]	0.2	12.5	–
Cc1ccc2cc(-c3ccccn3)nc(N)c2c1.Cc1ccc2cc(-c3ccccn3)nc(N)c2c1.O=[N+]([O-])[O-].[Cu+] [IIb, Bis[1-amino-7-methyl-3-(2-pyridyl)isoquinoline]cuprous nitrate]	–	6	–
Cc1cccc(-c2cc3ccccc3c(Cl)n2)n1 [XIb, 1-Chloro-3-(6-methyl-2-pyridyl)isoquinoline]	1	–	–
c1ccc(-c2ncc3ccccc3n2)nc1 [B]	–	–	MIC M. gall. with Cu (Table IVb): 0.5 µg/mL
Nc1nc(-c2ncc[nH]2)nc2ccccc12.Nc1nc(-c2ncc[nH]2)nc2ccccc12.O=[N+]([O-])[O-].O=[N+]([O-])[O-].[Cu+2] [XXb (3), Bis[4-amino-2-(1H-imidazole-2-yl)quinazoline]cupric nitrate]	6	50	–
Nc1nc(-c2ccccn2)cc2ccccc12.Nc1nc(-c2ccccn2)cc2ccccc12.O=[N+]([O-])[O-].[Cu+] [IIc, Bis[1-amino-3-(2-pyridyl)isoquinoline]cuprous nitrate]	0.4	3	–
Cn1ccnc1-c1cc2ccccc2c(N)n1 [XVa, 1-amino-3-(1-methyl-1H-imidazole-2-yl)isoquinoline]	1.5	–	MIC [2]: > 100 µg/mL
Clc1nc(-c2ccccn2)cc2ccccc12 [XIIc (2), 1-chloro-3-(2-pyridyl)isoquinoline]	0.06	–	–
